Measured values published in ChEMBL document CHEMBL1201862, “PubChem BioAssay data set” (2004).
The source made the active and inactive calls. Rule as the data show it, for most assays here: actives have a measured EC50 and inactives only a lower limit.

Experiments:
[1] = target: T1, Replicative DNA helicase DnaB (Mycobacterium tuberculosis, UniProt P9WMR3); experiment: DnaB intein splicing inhibitors, dose response, biochemical, cell-free fluorescence (AID 449749); type: functional
T1 sequence (P9WMR3 whole entry): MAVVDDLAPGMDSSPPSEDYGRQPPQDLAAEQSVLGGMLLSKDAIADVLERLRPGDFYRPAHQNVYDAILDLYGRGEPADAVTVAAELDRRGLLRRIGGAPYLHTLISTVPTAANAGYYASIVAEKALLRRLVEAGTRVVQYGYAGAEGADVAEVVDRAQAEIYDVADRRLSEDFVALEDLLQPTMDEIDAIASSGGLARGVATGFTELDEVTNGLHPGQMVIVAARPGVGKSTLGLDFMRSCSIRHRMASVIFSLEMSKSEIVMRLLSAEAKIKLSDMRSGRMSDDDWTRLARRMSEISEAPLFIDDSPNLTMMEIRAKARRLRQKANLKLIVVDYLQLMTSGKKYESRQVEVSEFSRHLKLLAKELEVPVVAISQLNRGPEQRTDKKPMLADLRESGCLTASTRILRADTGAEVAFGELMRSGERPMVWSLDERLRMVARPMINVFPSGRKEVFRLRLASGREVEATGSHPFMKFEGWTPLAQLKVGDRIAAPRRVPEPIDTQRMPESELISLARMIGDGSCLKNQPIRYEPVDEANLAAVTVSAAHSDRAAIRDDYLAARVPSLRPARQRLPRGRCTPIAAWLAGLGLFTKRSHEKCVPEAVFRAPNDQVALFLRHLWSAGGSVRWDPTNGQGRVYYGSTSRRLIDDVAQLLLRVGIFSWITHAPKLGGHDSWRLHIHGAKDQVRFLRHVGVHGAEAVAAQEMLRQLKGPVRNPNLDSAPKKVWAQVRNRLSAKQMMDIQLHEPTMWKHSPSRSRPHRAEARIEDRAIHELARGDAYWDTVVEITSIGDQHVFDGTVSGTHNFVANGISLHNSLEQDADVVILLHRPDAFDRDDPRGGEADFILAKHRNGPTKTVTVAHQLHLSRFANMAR

Protein RecA = target: T2, Protein RecA (Mycobacterium tuberculosis, UniProt P9WHJ3); experiment: Fluorescence Cell-Free Homogeneous Dose Retest to Identify Inhibitors of RecA-Intein Splicing Activity. [Related pubchem assays (depositor defined):AID2097, AID2223, AID489010, AID492950]; type: functional
T2 sequence (P9WHJ3 whole entry): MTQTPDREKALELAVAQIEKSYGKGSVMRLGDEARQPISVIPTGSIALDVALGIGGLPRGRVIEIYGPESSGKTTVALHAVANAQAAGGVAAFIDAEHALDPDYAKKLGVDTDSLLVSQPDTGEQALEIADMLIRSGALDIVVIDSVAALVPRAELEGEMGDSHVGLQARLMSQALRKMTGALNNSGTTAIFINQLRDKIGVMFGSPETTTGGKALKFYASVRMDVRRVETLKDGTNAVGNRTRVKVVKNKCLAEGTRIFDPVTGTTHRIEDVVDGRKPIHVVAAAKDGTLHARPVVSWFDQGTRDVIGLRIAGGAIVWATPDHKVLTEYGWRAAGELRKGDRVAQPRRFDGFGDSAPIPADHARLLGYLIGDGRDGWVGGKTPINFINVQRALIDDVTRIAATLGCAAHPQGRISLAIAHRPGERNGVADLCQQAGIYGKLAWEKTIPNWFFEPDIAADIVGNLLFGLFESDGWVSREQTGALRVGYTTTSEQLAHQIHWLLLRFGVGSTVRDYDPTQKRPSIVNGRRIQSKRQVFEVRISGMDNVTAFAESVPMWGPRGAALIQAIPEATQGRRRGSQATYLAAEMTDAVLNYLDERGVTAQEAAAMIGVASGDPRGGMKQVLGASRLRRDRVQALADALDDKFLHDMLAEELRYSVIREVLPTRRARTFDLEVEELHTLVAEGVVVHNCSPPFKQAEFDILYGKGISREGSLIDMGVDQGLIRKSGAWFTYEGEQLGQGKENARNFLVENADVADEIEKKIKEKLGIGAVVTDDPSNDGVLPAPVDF

Cytochrome P450 1A2 = target: T3, Cytochrome P450 1A2 (Homo sapiens, UniProt P05177);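 also: PubChem cytochrome P450 panel assay, CYP1A2 panel member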
T3 sequence (P05177 whole entry): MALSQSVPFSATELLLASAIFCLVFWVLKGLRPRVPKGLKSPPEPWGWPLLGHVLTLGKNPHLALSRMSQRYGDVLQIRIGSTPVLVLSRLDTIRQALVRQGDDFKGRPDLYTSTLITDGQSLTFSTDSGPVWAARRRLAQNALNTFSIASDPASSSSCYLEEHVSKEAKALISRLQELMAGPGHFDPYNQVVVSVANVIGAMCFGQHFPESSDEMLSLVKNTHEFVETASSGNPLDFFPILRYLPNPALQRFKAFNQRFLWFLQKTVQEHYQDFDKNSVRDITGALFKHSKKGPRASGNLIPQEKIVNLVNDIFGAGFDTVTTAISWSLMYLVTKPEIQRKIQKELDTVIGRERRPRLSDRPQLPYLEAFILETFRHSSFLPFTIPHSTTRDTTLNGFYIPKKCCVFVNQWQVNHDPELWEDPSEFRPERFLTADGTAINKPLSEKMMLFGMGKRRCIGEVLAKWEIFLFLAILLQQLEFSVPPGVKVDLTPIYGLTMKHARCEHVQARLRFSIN

[2] = target: T4, Heat shock factor protein 1 (Mus musculus, UniProt P38532); experiment: decrease of HSF1-responsive luciferase luminescence – cell-based, NIH3T3, dose retest, confirmation (AID 2382); type: functional;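 also: NIH3T3 fibroblasts with HSF1-driven luciferase reporter stressed by proteasome inhibitor MG132; luminescence from HSF1-driven luciferase expression after 8 hours of MG132 stress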
T4 sequence (P38532 whole entry): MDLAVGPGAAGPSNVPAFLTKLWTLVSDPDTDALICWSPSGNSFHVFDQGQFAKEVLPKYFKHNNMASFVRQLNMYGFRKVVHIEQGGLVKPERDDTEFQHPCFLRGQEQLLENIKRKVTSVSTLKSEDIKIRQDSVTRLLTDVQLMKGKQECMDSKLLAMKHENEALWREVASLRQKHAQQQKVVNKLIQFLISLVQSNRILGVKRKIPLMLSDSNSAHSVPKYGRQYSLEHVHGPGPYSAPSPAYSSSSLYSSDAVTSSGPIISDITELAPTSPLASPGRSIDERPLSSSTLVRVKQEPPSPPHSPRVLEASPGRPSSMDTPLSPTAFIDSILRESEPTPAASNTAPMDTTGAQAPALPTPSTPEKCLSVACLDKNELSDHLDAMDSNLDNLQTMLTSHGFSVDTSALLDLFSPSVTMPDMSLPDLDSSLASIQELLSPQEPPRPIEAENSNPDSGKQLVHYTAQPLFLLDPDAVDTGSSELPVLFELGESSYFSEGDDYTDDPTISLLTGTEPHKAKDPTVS

[3] = target: Luciferin 4-monooxygenase (Photinus pyralis, UniProt P08659); experiment: inhibition of purified Photinus pyralis luciferase – biochemical, luminescence, dose response (AID 1891)
[4] = Luminescence Cell-Based Dose Confirmation HTS to Identify Inhibitors of Platelet Dense Granule Release. [Related pubchem assays: 1663 (Primary HTS), 1678 (Summary of Project)]; type: functional
[5] = Trypanosoma cruzi growth suppression in host cells – NIH3T3 host cells, beta-gal luminescence, confirmation (AID 2044); type: functional, cell-based;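 also: intracellular parasites grown in NIH/3T3 mouse fibroblasts as host cells; luminescent beta-galactosidase reporter signal from transgenic T. cruzi replicating inside host cells; inhibitors lower the luminescence signal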
[6] = NIH3T3 cell viability loss – ATP luminescence, mouse fibroblasts, counter-screen, dose response (AID 2010); type: functional, cell-based;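 also: cells exposed to compound for about 90 hours before reading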
[7] = Luminescence Cell-Based Dose Retest to Confirm Inhibitors of Cancer Stem Cells. [Related pubchem assays (depositor defined):AID2717, AID2721]; type: functional; settings: Homo sapiens
[8] = target: T5, Corticotropin-releasing factor receptor 2/Corticotropin-releasing factor-binding protein (Homo sapiens, UniProt P24387+Q13324); experiment: Dose Response confirmation of uHTS hits for small molecule antagonists of the CRF-binding protein and CRF-R2 receptor complex.; type: functional; settings: read-out: IC50_Mean
T5 sequence (Q13324 whole entry): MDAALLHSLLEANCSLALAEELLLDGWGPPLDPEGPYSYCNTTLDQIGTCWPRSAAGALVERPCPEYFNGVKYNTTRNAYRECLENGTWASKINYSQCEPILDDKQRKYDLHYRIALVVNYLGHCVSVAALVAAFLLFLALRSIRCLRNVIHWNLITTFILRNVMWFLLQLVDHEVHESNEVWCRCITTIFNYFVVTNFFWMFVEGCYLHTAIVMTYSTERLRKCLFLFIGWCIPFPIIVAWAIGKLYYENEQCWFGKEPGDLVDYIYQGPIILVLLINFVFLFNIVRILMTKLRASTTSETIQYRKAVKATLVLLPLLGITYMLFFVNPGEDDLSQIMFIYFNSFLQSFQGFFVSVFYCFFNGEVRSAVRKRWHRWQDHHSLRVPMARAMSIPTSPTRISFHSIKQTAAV
T5 sequence (P24387 whole entry): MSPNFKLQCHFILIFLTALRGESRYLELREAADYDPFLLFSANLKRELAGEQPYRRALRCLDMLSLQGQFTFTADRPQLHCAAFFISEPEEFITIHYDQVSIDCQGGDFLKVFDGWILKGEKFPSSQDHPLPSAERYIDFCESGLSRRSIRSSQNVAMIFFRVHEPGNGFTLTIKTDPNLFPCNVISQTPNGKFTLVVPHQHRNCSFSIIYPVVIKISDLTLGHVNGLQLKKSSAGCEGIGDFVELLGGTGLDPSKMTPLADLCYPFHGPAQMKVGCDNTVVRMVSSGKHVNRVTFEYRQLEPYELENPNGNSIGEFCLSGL

[9] = target: T5, Corticotropin-releasing factor receptor 2/Corticotropin-releasing factor-binding protein; experiment: activators of CRF receptor 2 with binding protein – uHTS hits, confirmation (AID 602473); type: functional; settings: read-out: EC50_Mean
INS1 = experiment: INS-1E survival protection against cytokine death – cell-based, luminescence, retest, dose response (AID 449756); type: functional; settings: Rattus norvegicus;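 also: cell death triggered by IL-1 beta plus TNF-alpha plus IFN-gamma mixture; protective hits raise ATP signal compared with cytokine alone wells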

Sequence of Luciferin 4-monooxygenase (P08659 whole entry): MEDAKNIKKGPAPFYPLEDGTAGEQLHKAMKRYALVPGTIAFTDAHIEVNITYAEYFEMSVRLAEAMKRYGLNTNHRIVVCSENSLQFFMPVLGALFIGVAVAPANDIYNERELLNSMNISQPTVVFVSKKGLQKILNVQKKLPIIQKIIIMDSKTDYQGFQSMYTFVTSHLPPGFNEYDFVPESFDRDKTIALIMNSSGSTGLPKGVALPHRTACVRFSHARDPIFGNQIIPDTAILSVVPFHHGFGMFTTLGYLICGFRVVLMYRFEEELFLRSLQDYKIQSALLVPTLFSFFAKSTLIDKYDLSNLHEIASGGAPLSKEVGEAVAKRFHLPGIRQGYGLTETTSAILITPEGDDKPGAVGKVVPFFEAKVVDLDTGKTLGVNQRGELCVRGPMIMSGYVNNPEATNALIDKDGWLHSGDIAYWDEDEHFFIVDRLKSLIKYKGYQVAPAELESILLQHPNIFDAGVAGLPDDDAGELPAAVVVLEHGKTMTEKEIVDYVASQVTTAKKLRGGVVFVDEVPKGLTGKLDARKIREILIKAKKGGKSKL

Row | Structure (SMILES) | EC50 [2] | EC50 [3] | EC50 [4] | further results
1 | COc1ccc2nc(SCC(=O)NN)cc(C)c2c1 |  |  |  | AC50 [1]: 50.5 µM (active); EC50 (Protein RecA): 10.6 µM (active); AC50 (Cytochrome P450 1A2): 0.398 µM (inconclusive)
2 | CC1COc2ccccc2N1C(=O)c1ccc(F)cc1 (stereo not drawn) | > 195 µM (not active) |  |  | 
3 | O=C(O)/C=C/C(=O)Nc1cc(F)ccc1F | 35.9 µM (active) |  |  | 
4 | Cc1cc(C)nc(NC(=O)c2ccc(C)c([N+](=O)[O-])c2)n1 | > 195 µM (not active) |  |  | 
5 | Cc1ccc(NS(=O)(=O)c2ccc(Cl)c(C(=O)Nc3ccccc3-c3nc4ccccc4[nH]3)c2)cc1C |  | > 112 µM (not active) | > 112 µM (not active) | EC50 [5]: 2.49 µM (active); EC50 [6]: < 6 µM (inconclusive); AC50 [7]: 0.647 µM (active)
6 | Cc1ccc(N2C(=O)C(Cl)=C(N3CCOCC3)C2=O)c(C)c1 |  |  |  | AC50 [1]: 16 µM (active); EC50 (Protein RecA): 4.19 µM (active)
7 | CC(=O)C1=C(O)C(=O)N(Cc2ccccc2)C1c1ccc(F)cc1 (stereo not drawn) |  |  |  | IC50 [8]: > 47.1 µM (inactive); EC50 [9]: > 53 µM (inactive)
8 | O=C(CCNc1cccc(F)c1)c1cccc([N+](=O)[O-])c1 |  |  |  | AC50 [1]: > 380 µM (inactive); EC50 (Protein RecA): > 380 µM (inactive)
9 | N=C(NOC(=O)c1ccc(Cl)cc1Cl)c1ccccn1 |  | 1.05 µM (active) | 3.11 µM (active) | AC50 (INS1): 30 µM (active)
10 | Cc1cccc(NC(=O)C2CCCN(C(=O)NC3CCCCC3)C2)c1C (stereo not drawn) |  | > 112 µM (not active) | > 112 µM (not active) | 
11 | COc1ccc(CN=C(S)NNC(=O)c2cc3ccccc3o2)cc1 |  | > 112 µM (not active) | > 112 µM (not active) | 
12 | Cc1[nH]n(C(C)(C)C)c(=O)c1Sc1ccccc1 |  |  |  | AC50 [1]: 19.1 µM (active); EC50 (Protein RecA): 2.02 µM (active)
13 | S=C(NCCc1ccccc1)N1CCN(Cc2ccc(Cl)c(Cl)c2)CC1 | > 195 µM (not active) |  |  | 
14 | CCc1c(C)nc2ccc(C)cc2c1O | > 195 µM (not active) |  |  | 
15 | COc1cccc(Oc2ccc(OC)cc2C(=O)O)c1 |  |  |  | IC50 [8]: > 47.1 µM (inactive); EC50 [9]: > 53 µM (inactive)
16 | Cc1noc(C)c1CSCC(=O)Oc1ccc(N(C)S(=O)(=O)c2ccc(Cl)cc2)cc1 |  |  |  | AC50 [1]: 2.34 µM (active); EC50 (Protein RecA): 13.8 µM (active)
17 | COc1ccc(-n2cc([N+](=O)[O-])c(=O)c3ccc(Cl)cc32)cc1 | > 195 µM (not active) |  |  | 
18 | CCOC(=S)SCC(=O)Nc1nccs1 |  | > 112 µM (not active) | 21.6 µM (active) | 
19 | CC(Oc1ccccc1Cl)C(=O)Nc1ccc(S(=O)(=O)N2CCCC2)cc1 (stereo not drawn) |  | 32 µM (active) | > 112 µM (not active) | 
20 | CC(C)Cn1c(N2CCN(C(=O)/C=C/c3ccccc3)CC2)nc2ccccc21 | > 195 µM (not active) |  |  | 
21 | COc1cc2sc3ccc(C#CC4(O)CCCCC4)cc3c(=O)c2cc1OC |  | 2.35 µM (active) | 4.69 µM (active) | 
22 | CCOC(=O)c1c(C)[nH]c(C(=O)C(C)OC(=O)c2oc3ccccc3c2COC)c1C (stereo not drawn) |  | > 112 µM (not active) | 5.48 µM (active) | 
23 | Cc1cc(NC(=O)c2c(Cl)cccc2Cl)no1 |  | > 112 µM (not active) | > 112 µM (not active) | 
24 | O=C(CNC(=O)C1COc2ccccc2O1)N/N=C\c1ccccc1Cl (stereo not drawn) |  |  |  | AC50 [1]: 189 µM (active); EC50 (Protein RecA): > 380 µM (inactive)
25 | CCOC(=O)c1cc(C#N)c(NCc2ccccc2)nc1C | > 195 µM (not active) |  |  | 
26 | CC(=O)c1c(C)n(CCCOC(C)C)c2ccc(O)cc12 | > 195 µM (not active) |  |  | 
27 | CCN(CC(=O)Nc1ccccc1OC)C(=O)Cn1cnc2ccccc2c1=O |  | > 112 µM (not active) | > 112 µM (not active) | 
28 | CCOC(=O)CN1C(=O)S/C(=C/c2cc(C)n(C)c2C)C1=O | > 195 µM (not active) |  |  | 
29 | O=C(CSC1=NCCS1)Nc1nc(-c2ccccc2)cs1 |  |  |  | AC50 [1]: > 380 µM (inconclusive); EC50 (Protein RecA): 7.45 µM (active)
